Test results published in US20110318768A1, “METHOD FOR DETERMINING SENSITIVITY OF TUMOR CELLS TO TYROSINE KINASE INHIBITOR AND COMPUTER PROGRAM PRODUCT” (SYSMEX CORPORATION, priority 2010, published 2011).
Read-outs that look alike come from different tables or passages of the source.

Key:
[1] = system: T-47D breast cancer cell line; assay: Growth inhibition by lapatinib (Cell Titer-Glo); assay type: cell-based; settings: Homo sapiens, T47D
Method: (§1) The sensitivity of cell lines to EGFR/HER2 inhibitor was examined by culturing breast cancer cell lines shown in Table 3 in the presence of EGFR/HER2 inhibitor and examining growth inhibition effects on the cell lines.
(§2) The breast cancer cell lines shown in Table 3 were seeded in a 96 well assay plate (#3917: Costar) at 4,000 cells/well, and cultured at 37° C. After 24 hours, the medium was changed to a medium containing a DMSO solution of lapatinib ditosylate hydrate (hereafter also referred to as lapatinib; #L-4804: LC Laboratories) with various concentrations, and the culture was continued at 37° C. for 72 hours. The concentrations of lapatinib in the medium were 0 (control), 0.1, 1, 10, 30, 100, 300, 1,000 and 3,000, and 10,000 nM. The concentration of DMSO in the medium is constant (0.1 (v/v) %) in all of the wells. The cell number in the wells at 0 and 72 hours after exchange of the medium was measured using Cell Titer-Glo Luminescent Cell Viability Assay (#G7571: Promega KK.). The lapatinib concentration to yield half the cell number of the control in 72 hours was determined by fitting with a logistic curve and the concentration was IC50. The cell line whose IC50 was less than 1 μM was defined as a “sensitive line”, while the cell line whose IC50 was 1 μM or more was defined as an “insensitive line”.

[2] = system: UACC-812 breast cancer cell line; assay: Growth inhibition by lapatinib (Cell Titer-Glo); assay type: cell-based; settings: Homo sapiens
Method: as §1, §2

[3] = system: MDA-MB-415 breast cancer cell line; assay: Growth inhibition by lapatinib (Cell Titer-Glo); assay type: cell-based; settings: Homo sapiens
Method: as §1, §2

[4] = system: MDA-MB-468 breast cancer cell line; assay: Growth inhibition by lapatinib (Cell Titer-Glo); assay type: cell-based; settings: Homo sapiens
Method: as §1, §2

[5] = system: HCC1569 breast cancer cell line; assay: Growth inhibition by lapatinib (Cell Titer-Glo); assay type: cell-based; settings: Homo sapiens
Method: as §1, §2

[6] = system: HCC1937 breast cancer cell line; assay: Growth inhibition by lapatinib (Cell Titer-Glo); assay type: cell-based; settings: Homo sapiens
Method: as §1, §2

[7] = system: BT-474 breast cancer cell line; assay: Growth inhibition by lapatinib (Cell Titer-Glo); assay type: cell-based; settings: Homo sapiens
Method: as §1, §2

[8] = system: UACC-893 breast cancer cell line; assay: Growth inhibition by lapatinib (Cell Titer-Glo); assay type: cell-based; settings: Homo sapiens
Method: as §1, §2

[9] = system: HCC1954 breast cancer cell line; assay: Growth inhibition by lapatinib (Cell Titer-Glo); assay type: cell-based; settings: Homo sapiens
Method: as §1, §2

[10] = system: HCC1419 breast cancer cell line; assay: Growth inhibition by lapatinib (Cell Titer-Glo); assay type: cell-based; settings: Homo sapiens
Method: as §1, §2

[11] = system: BT-549 breast cancer cell line; assay: Growth inhibition by lapatinib (Cell Titer-Glo); assay type: cell-based; settings: Homo sapiens
Method: as §1, §2

[12] = system: MDA-MB-435S breast cancer cell line; assay: Growth inhibition by lapatinib (Cell Titer-Glo); assay type: cell-based; settings: Homo sapiens
Method: as §1, §2

[13] = system: HCC202 breast cancer cell line; assay: Growth inhibition by lapatinib (Cell Titer-Glo); assay type: cell-based
Method: as §1, §2

[14] = system: HCC1428 breast cancer cell line; assay: Growth inhibition by lapatinib (Cell Titer-Glo); assay type: cell-based; settings: Homo sapiens
Method: as §1, §2

[15] = system: AU565 breast cancer cell line; assay: Growth inhibition by lapatinib (Cell Titer-Glo); assay type: cell-based; settings: Homo sapiens
Method: as §1, §2

[16] = system: HCC1806 breast cancer cell line; assay: Growth inhibition by lapatinib (Cell Titer-Glo); assay type: cell-based; settings: Homo sapiens
Method: as §1, §2

[17] = system: ZR-75-1 breast cancer cell line; assay: Growth inhibition by lapatinib (Cell Titer-Glo); assay type: cell-based; settings: Homo sapiens
Method: as §1, §2

[18] = system: MDA-MB-453 breast cancer cell line; assay: Growth inhibition by lapatinib (Cell Titer-Glo); assay type: cell-based; settings: Homo sapiens
Method: as §1, §2

[19] = system: MDA-MB-231 breast cancer cell line; assay: Growth inhibition by lapatinib (Cell Titer-Glo); assay type: cell-based; settings: Homo sapiens
Method: as §1, §2

[20] = system: MDA-MB-157 breast cancer cell line; assay: Growth inhibition by lapatinib (Cell Titer-Glo); assay type: cell-based; settings: Homo sapiens
Method: as §1, §2

[21] = system: HS578T breast cancer cell line; assay: Growth inhibition by lapatinib (Cell Titer-Glo); assay type: cell-based; settings: Homo sapiens, Hs-578T
Method: as §1, §2

[22] = system: MDA-MB-436 breast cancer cell line; assay: Growth inhibition by lapatinib (Cell Titer-Glo); assay type: cell-based; settings: Homo sapiens
Method: as §1, §2

[23] = system: CAMA-1 breast cancer cell line; assay: Growth inhibition by lapatinib (Cell Titer-Glo); assay type: cell-based; settings: Homo sapiens
Method: as §1, §2

[24] = system: MCF7 breast cancer cell line; assay: Growth inhibition by lapatinib (Cell Titer-Glo); assay type: cell-based; settings: Homo sapiens
Method: as §1, §2

[25] = system: SK-BR-3 breast cancer cell line; assay: Growth inhibition by lapatinib (Cell Titer-Glo); assay type: cell-based; settings: Homo sapiens
Method: as §1, §2

[26] = system: BT-20 breast cancer cell line; assay: Growth inhibition by lapatinib (Cell Titer-Glo); assay type: cell-based; settings: Homo sapiens
Method: as §1, §2

[27] = system: ZR-75-30 breast cancer cell line; assay: Growth inhibition by lapatinib (Cell Titer-Glo); assay type: cell-based; settings: Homo sapiens
Method: as §1, §2

[28] = system: BT-483 breast cancer cell line; assay: Growth inhibition by lapatinib (Cell Titer-Glo); assay type: cell-based; settings: Homo sapiens
Method: as §1, §2

SK-Br-3 = settings: Konecny et al.; cited from earlier work
T47D = settings: Konecny et al.; cited from earlier work
MCF7 = settings: Konecny et al.; cited from earlier work
MDA-MB231 = settings: Konecny et al.; cited from earlier work
BT-474 = settings: Konecny et al.; cited from earlier work
[29] = 72 hours culture, read-out: IC50
[30] = read-out: Reference example 1 Sensitivity to lapatinib

CS(=O)(=O)CCNCc1ccc(-c2ccc3ncnc(Nc4ccc(OCc5cccc(F)c5)c(Cl)c4)c3c2)o1 [lapatinib, N-(3-chloro-4-[[(3-fluorophenyl)methyl]oxy]phenyl)-6-[5-([[2-(methylsulfonyl)ethyl]amino]methyl)-2-furanyl]-4-quinazolineamine bis(4-methylbenzenesulfonate)monohydrate]
IC50 [1, 29]: > 10000 nM | IC50 [1, 30]: ≥ 1000 nM | IC50 [2, 29]: 490 nM | IC50 [2, 30]: < 1000 nM | IC50 [3, 29]: > 10000 nM | IC50 [3, 30]: ≥ 1000 nM | IC50 [4, 29]: 3780 nM | IC50 [4, 30]: ≥ 1000 nM | IC50 [5, 29]: 4820 nM | IC50 [5, 30]: ≥ 1000 nM | IC50 [6, 29]: > 10000 nM | IC50 [6, 30]: ≥ 1000 nM | IC50 [7, 29]: 80 nM | IC50 [7, 30]: < 1000 nM | IC50 [8, 29]: 482 nM | IC50 [8, 30]: < 1000 nM | IC50 [9, 29]: 1470 nM | IC50 [9, 30]: ≥ 1000 nM | IC50 [10, 29]: 124 nM | IC50 [10, 30]: < 1000 nM | IC50 [11, 29]: > 10000 nM | IC50 [11, 30]: ≥ 1000 nM | IC50 [12, 29]: > 10000 nM | IC50 [12, 30]: ≥ 1000 nM | IC50 [13, 29]: 2470 nM | IC50 [13, 30]: ≥ 1000 nM | IC50 [14, 29]: > 10000 nM | IC50 [14, 30]: ≥ 1000 nM | IC50 [15, 29]: 157 nM | IC50 [15, 30]: < 1000 nM | IC50 [16, 29]: > 10000 nM | IC50 [16, 30]: ≥ 1000 nM | IC50 [17, 29]: > 10000 nM | IC50 [17, 30]: ≥ 1000 nM | IC50 [18, 29]: 309 nM | IC50 [18, 30]: < 1000 nM | IC50 [19, 29]: > 10000 nM | IC50 [19, 30]: ≥ 1000 nM | IC50 [20, 29]: > 10000 nM | IC50 [20, 30]: ≥ 1000 nM | IC50 [21, 29]: > 10000 nM | IC50 [21, 30]: ≥ 1000 nM | IC50 [22, 29]: > 10000 nM | IC50 [22, 30]: ≥ 1000 nM | IC50 [23, 29]: > 10000 nM | IC50 [23, 30]: ≥ 1000 nM | IC50 [24, 29]: > 10000 nM | IC50 [24, 30]: ≥ 1000 nM | IC50 [25, 29]: 315 nM | IC50 [25, 30]: < 1000 nM | IC50 [26, 29]: > 10000 nM | IC50 [26, 30]: ≥ 1000 nM | IC50 [27, 29]: 211 nM | IC50 [27, 30]: < 1000 nM | IC50 [28, 29]: > 10000 nM | IC50 [28, 30]: ≥ 1000 nM | lapatinib sensitivity of cell line (SK-Br-3): sensitive | lapatinib sensitivity of cell line (T47D): insensitive | lapatinib sensitivity of cell line (MCF7): insensitive | lapatinib sensitivity of cell line (MDA-MB231): insensitive | lapatinib sensitivity of cell line (BT-474): sensitive
